In the supplement of paper PMC10307832:

How the values were obtained:
Test in all cases: relative viability (nuclei count vs DMSO), 5 days (fraction); higher = more cells survive
Lestaurtinib + Alpelisib = compound: C[C@]12O[C@H](C[C@]1(O)CO)n1c3ccccc3c3c4c(c5c6ccccc6n2c5c31)CNC4=O [Lestaurtinib] + Cc1nc(NC(=O)N2CCC[C@H]2C(N)=O)sc1-c1ccnc(C(C)(C)C(F)(F)F)c1 [Alpelisib] (partner 2 µM)
In short: (§1)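 Relative viability divides the nuclei count in treated wells by that in vehicle wells. Lung cancer cell lines were seeded in 1536-well plates, dosed by pin tool the next day, and fixed and stained after 5 days in one step with final 0.05% Triton X-100, 1% formaldehyde and 1 ug/ml Hoechst. Dosing was a single drug or a fixed anchor-drug dose plus five library-drug doses (not always all listed) in √10 steps, and values are medians of duplicate plates imaged at 4×.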

[1] = compound: C1/C(=C\C2=CC=CS2)/C(=O)/C(=C/C3=CC=CS3)/C1 + Cc1nc(NC(=O)N2CCC[C@H]2C(N)=O)sc1-c1ccnc(C(C)(C)C(F)(F)F)c1 [Alpelisib] (partner 2 µM)
In short: as §1

TPCA-1 + Alpelisib = compound: C1=CC(=CC=C1C2=CC(=C(S2)NC(=O)N)C(=O)N)F [TPCA-1] + Cc1nc(NC(=O)N2CCC[C@H]2C(N)=O)sc1-c1ccnc(C(C)(C)C(F)(F)F)c1 [Alpelisib] (partner 2 µM)
In short: as §1

TPCA-1 + Crizotinib = compound: C1=CC(=CC=C1C2=CC(=C(S2)NC(=O)N)C(=O)N)F [TPCA-1] + C[C@@H](Oc1cc(-c2cnn(C3CCNCC3)c2)cnc1N)c1c(Cl)ccc(F)c1Cl [Crizotinib] (partner 1 µM)
In short: as §1

Row | Cell Line | relative viability (Lestaurtinib + Alpelisib; first compound 0.005 µM) | relative viability (Lestaurtinib + Alpelisib; first compound 0.01581 µM) | relative viability (Lestaurtinib + Alpelisib; first compound 0.05 µM) | relative viability (Lestaurtinib + Alpelisib; first compound 0.1581 µM) | relative viability (Lestaurtinib + Alpelisib; first compound 0.5 µM) | relative viability ([1]; first compound 0.2 µM) | relative viability ([1]; first compound 0.6325 µM) | relative viability ([1]; first compound 2 µM) | relative viability ([1]; first compound 6.325 µM) | relative viability ([1]; first compound 20 µM) | relative viability (TPCA-1 + Alpelisib; first compound 0.04 µM) | relative viability (TPCA-1 + Alpelisib; first compound 0.1265 µM) | relative viability (TPCA-1 + Alpelisib; first compound 0.4 µM) | relative viability (TPCA-1 + Alpelisib; first compound 1.265 µM) | relative viability (TPCA-1 + Alpelisib; first compound 4 µM) | relative viability (TPCA-1 + Crizotinib; first compound 0.04 µM) | relative viability (TPCA-1 + Crizotinib; first compound 0.1265 µM) | relative viability (TPCA-1 + Crizotinib; first compound 0.4 µM) | relative viability (TPCA-1 + Crizotinib; first compound 1.265 µM) | relative viability (TPCA-1 + Crizotinib; first compound 4 µM)
1 | NCI-H1666 | 0.915 | 1.05 | 1.02 | 0.493 | 0.442 | 1.18 | 0.936 | 0.972 | 0.712 | 0.852 | 1.08 | 0.813 | 0.925 | 1.04 | 0.747 | 0.894 | 0.971 | 0.977 | 0.918 | 0.993
2 | NCI-H1703 | 0.293 | 0.288 | 0.283 | 0.2 | 0.117 | 0.41 | 0.453 | 0.334 | 0.287 | 0.318 | 0.336 | 0.3 | 0.304 | 0.233 | 0.207 | 0.585 | 0.57 | 0.594 | 0.396 | 0.459
3 | NCI-H1734 | 0.732 | 0.689 | 0.569 | 0.377 | 0.304 | 0.725 | 0.666 | 0.713 | 0.588 | 0.682 | 0.726 | 0.571 | 0.767 | 0.69 | 0.686 | 0.706 | 0.584 | 0.704 | 0.642 | 0.575
4 | NCI-H1755 | 1 | 0.927 | 0.571 | 0.349 | 0.202 | 0.951 | 0.963 | 1 | 0.796 | 0.929 | 0.937 | 0.88 | 0.893 | 0.806 | 0.526 | 0.83 | 0.772 | 0.922 | 0.831 | 0.48
5 | NCI-H1792 | 0.858 | 0.875 | 0.516 | 0.429 | 0.209 | 0.803 | 0.763 | 0.711 | – | 0.697 | 0.733 | 0.714 | 0.646 | 0.675 | 0.389 | 1.01 | 0.952 | 1.02 | 0.928 | 0.584
6 | NCI-H1915 | 1.06 | 1.05 | 1.04 | 0.761 | 0.376 | 1.05 | 1.06 | 1.09 | 0.976 | 1.03 | 1.11 | 1.05 | 1.08 | 1.03 | 0.936 | 0.906 | 0.884 | 0.915 | 0.857 | 0.72
7 | NCI-H1944 | 0.82 | 0.745 | 0.61 | 0.41 | 0.383 | 0.864 | 0.8 | 0.855 | 0.713 | 0.818 | 0.859 | 0.799 | 0.815 | 0.744 | 0.658 | 1.18 | 1.03 | 1.02 | 1.02 | 0.682
8 | NCI-H1975 | 0.658 | 0.644 | 0.372 | 0.347 | 0.212 | 0.736 | 0.627 | 0.617 | 0.592 | 0.62 | 0.768 | 0.561 | 0.611 | 0.561 | 0.279 | 0.985 | 0.863 | 0.972 | 0.939 | 0.691
9 | NCI-H1993 | 0.788 | 0.677 | 0.691 | 0.591 | 0.583 | 0.698 | 0.655 | 0.633 | 0.703 | 0.637 | 0.654 | – | 0.711 | 0.633 | 0.731 | 0.868 | – | 1.02 | 0.851 | 0.849
10 | NCI-H2009 | 1.27 | 1.12 | 0.971 | 1.05 | 0.673 | 0.991 | 1.2 | 1.16 | 1.14 | 1.13 | 1.2 | 1.13 | 1.13 | 1.1 | 1.2 | 1.06 | 1.05 | 1.03 | 1.05 | 0.891
11 | NCI-H2023 | 0.674 | 0.616 | 0.536 | 0.488 | 0.384 | 0.706 | 0.595 | 0.63 | 0.559 | 0.619 | 0.598 | 0.522 | 0.634 | 0.489 | 0.417 | 0.75 | 0.667 | 0.658 | 0.636 | 0.512
12 | NCI-H2085 | 1.05 | 1.11 | 1.06 | 1.01 | 0.843 | 1.22 | 1.02 | 1.04 | 0.785 | 0.97 | 0.935 | 0.903 | 1 | 0.939 | 0.933 | 0.921 | 0.793 | 0.872 | 0.765 | 0.78
13 | NCI-H2087 | 1.15 | 1.08 | 0.83 | 0.783 | 0.325 | 1.24 | 1.14 | 1.04 | 0.917 | 1.11 | 1.06 | 0.871 | 0.916 | 1.06 | 0.418 | 0.801 | 0.828 | 0.781 | 0.867 | 0.283
14 | NCI-H2126 | 0.785 | 0.746 | 0.608 | 0.681 | 0.478 | 0.785 | 0.833 | 0.805 | 0.69 | 0.786 | 0.759 | 0.673 | 0.753 | 0.786 | 0.596 | 1.08 | 0.93 | 1.07 | 0.945 | 0.951
15 | NCI-H2170 | 0.698 | 0.707 | 0.592 | 0.699 | 0.404 | 0.888 | 0.775 | 0.758 | 0.638 | 0.749 | 0.906 | 0.697 | 0.803 | 0.733 | 0.526 | 1.33 | 1.15 | 1.16 | 1.13 | 0.583
16 | NCI-H2228 | 0.806 | 0.648 | 0.582 | 0.32 | 0.205 | 0.787 | 0.692 | 0.745 | 0.619 | 0.869 | 0.869 | 0.809 | 1.02 | 0.609 | 0.485 | 0.589 | 0.489 | 0.487 | 0.364 | 0.277
